Data taken from patent US12258328B2, “6-membered heteroaryl-containing aminopyridine compounds as EGFR inhibitors” (YUHAN CORPORATION, priority 2021, dated 2025).
Where two headings read alike, the source gives them in different places.

Legend:
[1] = molecular target: EGFR del19/T790M/C797S (Homo sapiens, UniProt P00533, C797S/DEL746-750/T790M); experiment: Biochemical EGFR kinase assay (Lance Ultra TR-FRET), triple mutant del19/T790M/C797S
In short: (§1)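 In this biochemical assay, phosphorylation after a one-hour room-temperature reaction was detected with europium-labelled anti-phosphopeptide antibody at 2 nM final concentration.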

[2] = molecular target: EGFR wildtype (Homo sapiens, UniProt P00533); experiment: Biochemical EGFR kinase assay (Lance Ultra TR-FRET), wildtype
In short: as §1

[3] = molecular target: EGFR L858R/T790M/C797S (Homo sapiens, UniProt P00533, C797S/L858R/T790M); experiment: Biochemical EGFR kinase assay (Lance Ultra TR-FRET), triple mutant L858R/T790M/C797S
Sequence of EGFR L858R/T790M/C797S (P00533 25-1210 T790M/C797S/L858R): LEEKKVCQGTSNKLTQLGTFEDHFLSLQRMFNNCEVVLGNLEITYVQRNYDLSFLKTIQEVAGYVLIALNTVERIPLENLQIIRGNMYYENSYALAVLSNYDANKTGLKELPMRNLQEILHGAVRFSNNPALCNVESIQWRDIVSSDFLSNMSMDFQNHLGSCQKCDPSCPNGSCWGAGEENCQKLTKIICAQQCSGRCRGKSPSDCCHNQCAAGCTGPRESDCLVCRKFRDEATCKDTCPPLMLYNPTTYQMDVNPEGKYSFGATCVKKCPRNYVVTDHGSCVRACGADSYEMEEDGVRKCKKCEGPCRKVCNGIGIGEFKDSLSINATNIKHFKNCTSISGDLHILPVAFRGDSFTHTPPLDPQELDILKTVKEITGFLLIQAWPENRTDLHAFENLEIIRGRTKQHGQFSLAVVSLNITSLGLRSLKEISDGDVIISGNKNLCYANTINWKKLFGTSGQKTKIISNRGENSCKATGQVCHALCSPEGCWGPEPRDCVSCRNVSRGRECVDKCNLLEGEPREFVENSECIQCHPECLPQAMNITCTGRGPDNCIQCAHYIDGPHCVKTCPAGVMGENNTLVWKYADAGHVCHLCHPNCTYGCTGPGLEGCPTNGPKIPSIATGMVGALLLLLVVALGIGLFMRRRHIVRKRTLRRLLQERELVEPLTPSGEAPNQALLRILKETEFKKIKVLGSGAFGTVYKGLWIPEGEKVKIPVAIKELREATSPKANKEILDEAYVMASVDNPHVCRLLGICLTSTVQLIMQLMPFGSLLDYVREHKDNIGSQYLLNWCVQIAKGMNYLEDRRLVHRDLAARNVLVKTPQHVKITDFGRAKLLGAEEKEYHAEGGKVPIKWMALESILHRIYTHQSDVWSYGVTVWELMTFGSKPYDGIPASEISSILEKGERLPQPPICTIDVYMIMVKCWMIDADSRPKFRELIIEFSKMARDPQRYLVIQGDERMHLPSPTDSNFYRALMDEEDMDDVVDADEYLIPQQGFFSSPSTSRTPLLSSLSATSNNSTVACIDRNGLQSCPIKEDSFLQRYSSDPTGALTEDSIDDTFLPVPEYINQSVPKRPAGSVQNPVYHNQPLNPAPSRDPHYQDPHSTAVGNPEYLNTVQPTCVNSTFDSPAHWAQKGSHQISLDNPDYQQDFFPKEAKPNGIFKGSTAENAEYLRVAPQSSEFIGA
In short: as §1

[4] = molecular target: EGFR L858R/C797S (Homo sapiens, UniProt P00533, C797S/L858R); experiment: Biochemical EGFR kinase assay (Lance Ultra TR-FRET), double mutant L858R/C797S
Sequence of EGFR L858R/C797S (P00533 25-1210 C797S/L858R): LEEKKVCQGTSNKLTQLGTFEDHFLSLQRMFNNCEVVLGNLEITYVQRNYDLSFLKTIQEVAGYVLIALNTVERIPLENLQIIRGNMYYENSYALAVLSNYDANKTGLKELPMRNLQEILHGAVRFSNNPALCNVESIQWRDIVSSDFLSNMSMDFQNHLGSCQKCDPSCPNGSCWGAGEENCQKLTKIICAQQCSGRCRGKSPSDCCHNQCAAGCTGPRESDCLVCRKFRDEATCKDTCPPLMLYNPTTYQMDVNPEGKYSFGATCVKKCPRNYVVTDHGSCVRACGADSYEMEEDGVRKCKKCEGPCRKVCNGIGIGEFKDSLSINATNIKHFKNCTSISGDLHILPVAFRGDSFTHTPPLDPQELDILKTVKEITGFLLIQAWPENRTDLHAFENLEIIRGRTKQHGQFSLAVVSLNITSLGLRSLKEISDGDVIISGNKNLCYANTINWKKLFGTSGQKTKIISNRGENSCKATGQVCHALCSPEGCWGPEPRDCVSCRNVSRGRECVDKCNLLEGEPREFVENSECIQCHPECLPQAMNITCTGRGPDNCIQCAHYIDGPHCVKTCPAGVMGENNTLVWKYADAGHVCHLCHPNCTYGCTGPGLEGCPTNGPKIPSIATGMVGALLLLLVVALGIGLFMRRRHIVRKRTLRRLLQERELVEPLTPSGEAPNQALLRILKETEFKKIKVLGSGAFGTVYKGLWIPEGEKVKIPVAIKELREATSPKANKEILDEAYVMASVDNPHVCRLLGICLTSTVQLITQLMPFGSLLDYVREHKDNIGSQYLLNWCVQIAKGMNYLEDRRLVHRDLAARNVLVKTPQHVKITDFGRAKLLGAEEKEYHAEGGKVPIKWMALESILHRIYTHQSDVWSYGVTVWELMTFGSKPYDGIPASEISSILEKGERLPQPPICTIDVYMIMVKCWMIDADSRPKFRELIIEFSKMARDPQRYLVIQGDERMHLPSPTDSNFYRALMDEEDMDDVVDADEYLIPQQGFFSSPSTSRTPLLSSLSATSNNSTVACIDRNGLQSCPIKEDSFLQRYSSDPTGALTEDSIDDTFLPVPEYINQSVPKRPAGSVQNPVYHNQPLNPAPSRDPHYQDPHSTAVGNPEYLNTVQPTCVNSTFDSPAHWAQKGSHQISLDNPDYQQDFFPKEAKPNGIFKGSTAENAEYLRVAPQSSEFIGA
In short: as §1

[5] = molecular target: EGFR del19/C797S (Homo sapiens, UniProt P00533, C797S/DEL746-750); experiment: Biochemical EGFR kinase assay (Lance Ultra TR-FRET), double mutant del19/C797S
Sequence of EGFR del19/C797S (P00533 with tags, fused parts or gaps DEL746-750/C797S): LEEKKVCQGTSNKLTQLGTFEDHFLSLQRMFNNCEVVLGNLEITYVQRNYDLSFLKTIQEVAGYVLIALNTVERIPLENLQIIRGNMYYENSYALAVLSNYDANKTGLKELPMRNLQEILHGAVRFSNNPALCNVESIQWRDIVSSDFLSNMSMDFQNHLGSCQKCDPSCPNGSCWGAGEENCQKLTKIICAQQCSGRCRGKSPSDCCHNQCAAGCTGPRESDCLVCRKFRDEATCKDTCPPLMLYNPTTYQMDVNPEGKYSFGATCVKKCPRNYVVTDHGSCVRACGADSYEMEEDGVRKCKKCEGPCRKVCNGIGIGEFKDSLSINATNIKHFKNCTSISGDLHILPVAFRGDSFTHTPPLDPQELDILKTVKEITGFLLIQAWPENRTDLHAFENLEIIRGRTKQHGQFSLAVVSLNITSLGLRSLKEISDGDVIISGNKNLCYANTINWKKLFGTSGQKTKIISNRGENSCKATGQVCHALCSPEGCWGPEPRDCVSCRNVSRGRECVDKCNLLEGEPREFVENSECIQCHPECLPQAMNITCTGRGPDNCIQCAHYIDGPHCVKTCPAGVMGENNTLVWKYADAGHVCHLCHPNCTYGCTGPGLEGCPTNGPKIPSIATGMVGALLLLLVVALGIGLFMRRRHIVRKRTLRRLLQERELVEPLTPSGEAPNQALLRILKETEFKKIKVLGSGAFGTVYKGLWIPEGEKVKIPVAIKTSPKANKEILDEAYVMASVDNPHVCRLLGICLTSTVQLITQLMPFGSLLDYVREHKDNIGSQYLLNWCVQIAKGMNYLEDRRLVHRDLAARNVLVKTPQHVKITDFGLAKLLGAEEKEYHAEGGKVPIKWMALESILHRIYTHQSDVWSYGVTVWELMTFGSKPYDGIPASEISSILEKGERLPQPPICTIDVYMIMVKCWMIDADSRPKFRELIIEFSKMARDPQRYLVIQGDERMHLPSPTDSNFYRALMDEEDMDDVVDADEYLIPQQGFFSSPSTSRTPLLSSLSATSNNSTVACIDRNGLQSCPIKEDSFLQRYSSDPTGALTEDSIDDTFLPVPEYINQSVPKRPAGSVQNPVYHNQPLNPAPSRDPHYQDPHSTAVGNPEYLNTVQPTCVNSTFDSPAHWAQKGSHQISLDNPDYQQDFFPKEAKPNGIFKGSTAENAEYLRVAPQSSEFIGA
In short: as §1

[6] = ATP at Km, read-out: IC50 del19/T790M/C797S, Km ATP
[7] = ATP at Km, read-out: IC50 WT, Km ATP
[8] = ATP at Km, read-out: IC50 L858R/T790M/C797S, Km ATP
[9] = ATP at Km, read-out: IC50 L858R/C797S, Km ATP
[10] = ATP at Km, read-out: IC50 del19/C797S, Km ATP
[11] = IC50 del19/T790M/C797S (nM) 100 μM ATP, 100 μM ATP
[12] = Km ATP, read-out: IC50 del19/T790M/C797S (nM) Km ATP
[13] = IC50 WT (nM) 100 μM ATP, 100 μM ATP
[14] = Km ATP, read-out: IC50 WT (nM) Km ATP
[15] = IC50 L858R/T790M/C797S (nM) 100 μM ATP, 100 μM ATP
[16] = Km ATP, read-out: IC50 L858R/T790M/C797S (nM) Km ATP
[17] = IC50 L858R/C797S (nM) 100 μM ATP, 100 μM ATP
[18] = Km ATP, read-out: IC50 L858R/C797S (nM) Km ATP
[19] = IC50 del19/C797S (nM) 100 μM ATP, 100 μM ATP
[20] = Km ATP, read-out: IC50 del19/C797S (nM) Km ATP

Sequence of EGFR del19/T790M/C797S (P00533 with tags, fused parts or gaps DEL746-750/T790M/C797S): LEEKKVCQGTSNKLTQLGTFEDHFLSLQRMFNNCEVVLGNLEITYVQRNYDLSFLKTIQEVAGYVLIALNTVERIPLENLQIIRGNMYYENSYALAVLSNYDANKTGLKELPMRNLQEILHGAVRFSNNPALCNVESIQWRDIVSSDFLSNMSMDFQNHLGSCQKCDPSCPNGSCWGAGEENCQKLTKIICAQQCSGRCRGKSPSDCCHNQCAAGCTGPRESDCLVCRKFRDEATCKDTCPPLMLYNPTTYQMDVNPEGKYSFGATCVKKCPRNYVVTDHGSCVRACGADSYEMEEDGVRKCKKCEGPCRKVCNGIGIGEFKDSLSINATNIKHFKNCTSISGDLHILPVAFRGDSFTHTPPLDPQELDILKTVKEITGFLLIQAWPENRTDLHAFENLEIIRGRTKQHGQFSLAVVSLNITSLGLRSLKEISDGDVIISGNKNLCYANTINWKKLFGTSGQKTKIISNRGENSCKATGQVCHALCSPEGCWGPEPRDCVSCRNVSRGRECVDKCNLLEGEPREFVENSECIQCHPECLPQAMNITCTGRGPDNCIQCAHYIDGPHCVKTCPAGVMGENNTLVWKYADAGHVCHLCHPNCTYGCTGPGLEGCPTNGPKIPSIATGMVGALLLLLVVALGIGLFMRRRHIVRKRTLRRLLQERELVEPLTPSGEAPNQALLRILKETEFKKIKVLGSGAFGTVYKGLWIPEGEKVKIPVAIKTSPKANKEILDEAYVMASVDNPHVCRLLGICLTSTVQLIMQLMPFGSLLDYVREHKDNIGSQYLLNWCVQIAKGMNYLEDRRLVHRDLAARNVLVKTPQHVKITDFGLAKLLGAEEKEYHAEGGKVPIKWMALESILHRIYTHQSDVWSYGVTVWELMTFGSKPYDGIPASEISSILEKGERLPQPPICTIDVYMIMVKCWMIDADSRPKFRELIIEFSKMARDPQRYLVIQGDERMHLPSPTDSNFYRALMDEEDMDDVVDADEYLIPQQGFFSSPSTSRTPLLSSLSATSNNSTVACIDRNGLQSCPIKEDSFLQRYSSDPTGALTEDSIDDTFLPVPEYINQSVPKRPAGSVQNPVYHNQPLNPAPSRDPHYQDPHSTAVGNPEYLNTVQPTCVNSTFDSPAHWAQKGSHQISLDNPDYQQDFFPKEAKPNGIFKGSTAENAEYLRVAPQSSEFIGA

Row | SMILES | IC50 [1, 6] | IC50 ([1]; IC50 del19/T790M/C797S, 100 μM ATP) | IC50 [2, 7] | IC50 ([2]; IC50 WT, 100 μM ATP) | IC50 [3, 8] | IC50 [4, 9] | IC50 ([4]; IC50 L858R/C797S, 100 μM ATP) | IC50 [5, 10] | IC50 ([5]; IC50 del19/C797S, 100 μM ATP) | IC50 [1, 11] | IC50 [1, 12] | IC50 [2, 13] | IC50 [2, 14] | IC50 [3, 15] | IC50 [3, 16] | IC50 [4, 17] | IC50 [4, 18] | IC50 [5, 19] | IC50 [5, 20] | IC50 ([3]; IC50 L858R/T790M/C797S, 100 μM ATP)
1 | C[C@]1(O)CC[C@@H](Nc2cc(Nc3ccnc(-c4cnn(S(=O)(=O)C5CC5)c4)n3)ncc2-c2cc(NCCN3CCOCC3)ccn2)CC1 [Example 279, (1s,4s)-4-((6′-((2-(1-(Cyclopropylsulfonyl)-1H-pyrazol-4-yl)pyrimidin-4-yl)amino)-4 ((2-morpholinoethyl)amino)-[2,3′-bipyridin]-4′-yl)amino)-1-methylcyclohexan-1-ol] | 2 nM | 2.9 nM | 11.9 nM | > 10000 nM | 0.6 nM | 0.9 nM | 6.6 nM | 1.7 nM | 5 nM | – | – | – | – | – | – | – | – | – | – | –
2 | C[C@]1(O)CC[C@@H](Nc2cc(Nc3ccnc(-c4cnn(S(=O)(=O)C5CC5)c4)n3)ncc2-c2ccc(N3CCCC3)cn2)CC1 [Example 80, (1s,4s)-4-((6′-((2-(1-(Cyclopropylsulfonyl)-1H-pyrazol-4-yl)pyrimidin-4-yl)amino)-5-(pyrrolidin-1-yl)-[2,3′-bipyridin]-4′-yl)amino)-1-methylcyclohexan-1-ol] | – | – | – | – | – | – | – | – | – | 6.2 nM | 3.8 nM | 4410 nM | 11.4 nM | 6.3 nM | 2.8 nM | 11.1 nM | 2.3 nM | 8.4 nM | 2.5 nM | –
3 | CC1(O)CCC(Nc2cc(Nc3ccnc(-c4cnn(S(=O)(=O)C5CC5)c4)n3)ncc2-c2ccc(C(C)(O)C(F)(F)F)cn2)CC1 (stereo not shown) [Example 230, (1s,4s)-4-((6′-((2-(1-(Cyclopropylsulfonyl)-1H-pyrazol-4-yl)pyrimidin-4-yl)amino)-5-(1,1,1-trifluoro-2-hydroxypropan-2-yl)-[2,3′-bipyridin]-4′-yl)amino)-1-methylcyclohexan-1-ol] | 1.1 nM | – | 5 nM | 1660 nM | 0.4 nM | 2.4 nM | 7.8 nM | 1.7 nM | 6 nM | – | – | – | – | – | – | – | – | – | – | 0.6 nM
4 | CC(C)Nc1cc(Nc2ccnc(-c3cnn(S(=O)(=O)C4CC4)c3)n2)ncc1-c1ccc(C(O)C(F)(F)F)cn1 (stereo not shown) [Example 294, 1-(6′-((2-(1-(Cyclopropylsulfonyl)-1H-pyrazol-4-yl)pyrimidin-4-yl)amino)-4′-(isopropylamino)-[2,3′-bipyridin]-5-yl)-2,2,2-trifluoroethan-1-ol] | 9.8 nM | – | 28 nM | – | 2.3 nM | 38.5 nM | – | 60.8 nM | – | – | – | – | – | – | – | – | – | – | – | –
5 | CN1CCC(Oc2ccc(-c3cnc(Nc4ccnc(-c5cnn(S(=O)(=O)C6CC6)c5)n4)cc3NC3CC(F)(F)C3)nc2)CC1 [Example 140, N^6′-(2-(1-(Cyclopropylsulfonyl)-1H-pyrazol-4-yl)pyrimidin-4-yl)-N^4′-(3,3-difluorocyclobutyl)-5-((1-methylpiperidin-4-yl)oxy)-[2,3′-bipyridine]-4′,6′-diamine] | – | – | – | – | – | – | – | – | – | – | 0.2 nM | – | 67.6 nM | – | 0.2 nM | – | 15.1 nM | – | 8.3 nM | –
6 | CN1CCN(Cc2ccnc(-c3cnc(Nc4ccnc(-c5cnn(S(=O)(=O)C6CC6)c5)n4)cc3N[C@H]3CC[C@@](C)(O)CC3)c2)CC1 [Example 55, (1s,4s)-4-((6′-((2-(1-(Cyclopropylsulfonyl)-1H-pyrazol-4-yl)pyrimidin-4-yl)amino)-4-((4-methylpiperazin-1-yl)methyl)-[2,3′-bipyridin]-4′-yl)amino)-1-methylcyclohexan-1-ol] | – | – | – | – | – | – | – | – | – | 1.7 nM | 0.7 nM | 754 nM | 1.9 nM | 0.4 nM | – | 1 nM | 0.3 nM | 1.1 nM | 0.5 nM | –
7 | CN1CCC(Oc2ccc(-c3cnc(Nc4ccnc(-c5cnn(S(=O)(=O)C6CC6)c5)n4)cc3NC3CCC(F)(F)CC3)nc2)CC1 [Example 255, N^6′-(2-(1-(Cyclopropylsulfonyl)-1H-pyrazol-4-yl)pyrimidin-4-yl)-N^4′-(4,4-difluorocyclohexyl)-5-((1-methylpiperidin-4-yl)oxy)-[2,3′-bipyridine]-4′,6′-diamine] | 0.1 nM | – | 1.9 nM | – | 0.03 nM | 0.02 nM | – | 0.5 nM | – | – | – | – | – | – | – | – | – | – | – | –
